This is an account of results in patent US6432692B1, “Sensitive bioassay for detecting agonists of the aryl hydrocarbon receptor” (Wisconsin Alumni Research Foundation, priority 1999, dated 2002).

For experiment [1], the system named is AHR. The note with it: mouse hepatoma cells overexpressing ARA9; cited from earlier work.
For experiment [2], the system named is GR-LexA chimera. Description: GR-LexA chimera β-galactosidase reporter dose-response in yeast strain L40. It counts as cell-based. Here is the method:
Pharmacology in yeast: AHR dose-response curves were performed in the S. cerevisiae strain L40 as described previously (Carver et al., 1994, supra). Two days after plasmid transformation, the colonies were replica plated on media with various concentrations of βNF spread on the surface. The replica plates were then incubated for two days at 30° C. For each dose of βNF, three colonies were suspended in 100 μl of Z-buffer (60 mM Na2HPO4, 40 mM NaH2PO4, 10 mM KCl, 1 MM MgSO4, 35 mM 2-mercaptoethanol) and cell density was estimated by reading the A600. Twenty microliters of the remaining cell suspension was added to 130 μl Z-buffer, 25 μl 0.1%SDS (w/v), 25 μl CHCl3 and disrupted at high speed for 10 sec. Thirty microliters of a 4 mg/ml ONPG solution was added and the mixture incubated for 2-5 min at 30° C. The reaction was stopped by adding 75 μl of 1M NaCO3, the cell debris removed by centrifugation and the A420 was determined. Beta-galactosidase units were determined using the following formula (A420/(A600 of 1/10 dilution of cells×volume of culture×time of incubation))×1,000. […]
Next, the specificity of ARA3 for the AHR signaling pathway in yeast was examined. […] In this system, GR is expressed as a LexA fusion protein in which the LexA binding domain replaces the GR DNA binding domain.

The target in experiment [3] is T1, LexA-AHR chimera (Mus musculus, UniProt P30561).
T1 construct: expressed in transfected cells; host or cells: Saccharomyces cerevisiae strain L40; the other entry of the earlier key: lexA (P0A7C2, LexA repressor)
T1 sequence (P30561 with tags, fused parts or gaps): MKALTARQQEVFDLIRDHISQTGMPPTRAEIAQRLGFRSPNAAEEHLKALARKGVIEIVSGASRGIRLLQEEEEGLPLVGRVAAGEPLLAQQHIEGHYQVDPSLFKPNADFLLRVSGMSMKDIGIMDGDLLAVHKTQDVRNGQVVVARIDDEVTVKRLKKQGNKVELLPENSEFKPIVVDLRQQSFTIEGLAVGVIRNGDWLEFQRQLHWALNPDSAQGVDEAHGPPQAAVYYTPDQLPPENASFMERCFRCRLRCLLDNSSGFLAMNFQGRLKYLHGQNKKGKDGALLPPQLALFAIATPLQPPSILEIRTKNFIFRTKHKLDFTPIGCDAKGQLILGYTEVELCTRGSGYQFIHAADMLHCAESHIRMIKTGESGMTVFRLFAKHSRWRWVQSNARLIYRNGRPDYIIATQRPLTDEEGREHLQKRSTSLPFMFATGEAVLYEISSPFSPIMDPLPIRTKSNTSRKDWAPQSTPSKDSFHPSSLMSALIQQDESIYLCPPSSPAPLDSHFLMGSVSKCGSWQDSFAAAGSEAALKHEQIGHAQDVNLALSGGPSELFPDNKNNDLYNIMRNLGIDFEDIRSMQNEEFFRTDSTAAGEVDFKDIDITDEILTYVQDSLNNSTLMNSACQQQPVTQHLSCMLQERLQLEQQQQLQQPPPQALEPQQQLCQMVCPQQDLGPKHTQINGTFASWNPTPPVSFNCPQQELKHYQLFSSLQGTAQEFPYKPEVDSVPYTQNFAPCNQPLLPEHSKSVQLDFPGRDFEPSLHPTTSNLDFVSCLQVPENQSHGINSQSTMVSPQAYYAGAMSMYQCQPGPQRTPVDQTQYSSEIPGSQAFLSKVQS
T1 sequence (P15108 whole entry partner): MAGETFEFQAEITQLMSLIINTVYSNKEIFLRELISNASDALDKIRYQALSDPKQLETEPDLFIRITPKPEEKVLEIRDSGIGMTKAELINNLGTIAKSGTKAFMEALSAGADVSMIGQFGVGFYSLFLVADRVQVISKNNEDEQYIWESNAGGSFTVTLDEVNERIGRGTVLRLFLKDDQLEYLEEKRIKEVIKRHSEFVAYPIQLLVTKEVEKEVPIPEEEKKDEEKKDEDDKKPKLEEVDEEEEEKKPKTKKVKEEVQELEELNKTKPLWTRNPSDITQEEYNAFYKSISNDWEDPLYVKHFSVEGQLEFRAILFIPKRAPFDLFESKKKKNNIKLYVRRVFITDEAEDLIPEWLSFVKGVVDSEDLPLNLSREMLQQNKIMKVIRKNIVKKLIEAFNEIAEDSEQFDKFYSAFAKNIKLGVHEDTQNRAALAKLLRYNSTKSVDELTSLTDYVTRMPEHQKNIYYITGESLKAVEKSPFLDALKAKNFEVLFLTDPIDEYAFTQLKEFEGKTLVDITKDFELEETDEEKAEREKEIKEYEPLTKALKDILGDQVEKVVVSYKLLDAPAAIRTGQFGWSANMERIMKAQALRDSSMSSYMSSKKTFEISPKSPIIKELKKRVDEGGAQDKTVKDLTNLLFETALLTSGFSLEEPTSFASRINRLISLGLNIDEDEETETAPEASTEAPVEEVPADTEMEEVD
The experiment can be described thus: LexA-AHR chimera / LexA-operator β-galactosidase reporter dose-response in yeast strain L40. Type of experiment: cell-based. As for the experimental part:
Pharmacology in yeast: AHR dose-response curves were performed in the S. cerevisiae strain L40 as described previously (Carver et al., 1994, supra). Two days after plasmid transformation, the colonies were replica plated on media with various concentrations of βNF spread on the surface. The replica plates were then incubated for two days at 30° C. For each dose of βNF, three colonies were suspended in 100 μl of Z-buffer (60 mM Na2HPO4, 40 mM NaH2PO4, 10 mM KCl, 1 MM MgSO4, 35 mM 2-mercaptoethanol) and cell density was estimated by reading the A600. Twenty microliters of the remaining cell suspension was added to 130 μl Z-buffer, 25 μl 0.1%SDS (w/v), 25 μl CHCl3 and disrupted at high speed for 10 sec. Thirty microliters of a 4 mg/ml ONPG solution was added and the mixture incubated for 2-5 min at 30° C. The reaction was stopped by adding 75 μl of 1M NaCO3, the cell debris removed by centrifugation and the A420 was determined. Beta-galactosidase units were determined using the following formula (A420/(A600 of 1/10 dilution of cells×volume of culture×time of incubation))×1,000. To examine expression levels of FKBP52 and ARA9 in yeast, we performed western blot analysis on cell extracts as described previously (Hogenesch et al., J. Biol. Chem. 272: 8581-8593, 1997).
ARA9 enhances ligand responsiveness of AHR: Given the sequence similarities between ARA9 and FKBP52, we asked if either protein could influence AHR signaling in vivo. To this end, we employed a LexA-AHR chimera and a LexA-operator-driven β-galactosidase reporter gene in the yeast S. cerevisiae (Carver et al., 1994, supra). Beta-napthoflavone dose-response curves were constructed for the LexA-AHR in the presence and absence of ARA9 (FIG. 5).
ARA3 was a candidate for a novel regulator of AHR signaling because of its ligand-dependent association with AHR in the two-hybrid screen. The influence of ARA3 on AHR signaling was investigated to determine modifier status. To accomplish this, an ARA3 cDNA (lacking the heterologous TAD from the two-hybrid clone, TAD-NΔ113ARA3) was expressed with LexA-NΔ166AHR in the L40 strain of yeast with increasing concentrations of β-NF.

Molecules are shown by their SMILES.

With `Clc1cc2c(cc1Cl)Oc1cc(Cl)c(Cl)cc1O2` [TCDD, 2,3,7,8-tetrachlorodibenzo-p-dioxin], in experiment [1], the “increase of response of the system on overexpression of ARA9” value is given as 2-3 fold.
For the compound `C[C@]12CC[C@H]3[C@@H](CCC4=CC(=O)CC[C@@]43C)[C@@H]1CC[C@@H]2C(=O)CO` [deoxycorticosterone], in experiment [2] (co-expression of ARA3 with NlxC-GR), the “alteration of signaling profile of GR by ARA3” value was “did not alter the signaling profile”. For the same compound, in experiment [2] (co-expression of ARA9 or FKBP52), the “alteration of response of GR-LexA chimera by ARA9 or FKBP52” value is recorded as “nor could either factor alter the response”.
Turning to `O=c1cc(-c2ccccc2)oc2ccc3ccccc3c12` [βNF, Beta-napthoflavone], in experiment [3] (co-expression of ARA3 (NΔ113ARA3) with LexA-NΔ166AHR), the “increase of maximal response of AHR by ARA3” value is on record as “four-fold”. In addition, the “increase of maximal response in the presence of ARA9” value in experiment [3] (co-expression of ARA9 versus absence) is recorded as “approximately 2.5 fold”. Moreover, the “decrease of EC50 when ARA9 was present” value in experiment [3] (co-expression of ARA9 versus absence, β-galactosidase, ONPG assay) was “approximately 5 fold”. In experiment [3] (co-expression of FKBP52), the “shift in AHR dose-response elicited by FKBP52” value was “could not be elicited”. In addition, the “shift of dose-response curve by ARA3” value in experiment [3] (co-expression of NΔ113ARA3 with LexA-NΔ166AHR) is recorded as “shifted the curve to the left”.
